# Measurements as given in publication PMC6664820, “Novel natural and synthetic inhibitors of solute carriers SGLT1 and SGLT2” (Pharmacology Research & Perspectives, 2019).
# “And” between values parts separate entries of the source, which are not always exact repeats. Identical values can stand only once. Counter-ions that a name gives are not always drawn. Like-named read-outs stand apart in the source and are kept apart here.
# Tests used:
# [1] = target: T1, SGLT1 (Homo sapiens, UniProt P13866); assay: SGLT1 inhibition assay for validation of screening hits and similar compounds (1‐NBD‐glucose uptake, CHO‐hSGLT1 cells); format: cell-based; parameters: activity: dose or concentration left out as unconfirmed; details: for activity: compound, normalized 1-NBD-glucose uptake, CHO-hSGLT1 cells; for remaining activity at 5 µM / remaining activity at 50 µM: 0.5 h, read-out: NORMALIZED SGLT1 ACTIVITY (%)
# T1 sequence (P13866 1-664): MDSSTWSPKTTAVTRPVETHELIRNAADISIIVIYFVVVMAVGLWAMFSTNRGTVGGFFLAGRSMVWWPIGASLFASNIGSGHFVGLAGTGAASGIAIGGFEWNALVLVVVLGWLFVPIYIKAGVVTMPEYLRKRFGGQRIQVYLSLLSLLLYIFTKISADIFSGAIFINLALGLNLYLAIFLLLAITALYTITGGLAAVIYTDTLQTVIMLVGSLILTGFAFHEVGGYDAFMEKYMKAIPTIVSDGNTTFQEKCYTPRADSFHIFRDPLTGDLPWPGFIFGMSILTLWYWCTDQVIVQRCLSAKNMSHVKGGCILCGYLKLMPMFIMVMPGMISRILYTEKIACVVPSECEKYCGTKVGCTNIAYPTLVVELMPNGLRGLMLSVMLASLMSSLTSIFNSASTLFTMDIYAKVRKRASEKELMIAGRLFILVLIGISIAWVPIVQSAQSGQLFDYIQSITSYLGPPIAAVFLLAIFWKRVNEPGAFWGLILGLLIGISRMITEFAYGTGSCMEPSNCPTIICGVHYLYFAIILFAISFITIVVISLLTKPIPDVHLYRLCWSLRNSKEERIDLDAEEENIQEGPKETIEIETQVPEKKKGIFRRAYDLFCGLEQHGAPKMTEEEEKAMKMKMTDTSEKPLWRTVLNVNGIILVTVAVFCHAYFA
# [2] = target: T2, hSGLT2 (Homo sapiens, UniProt P31639); assay: SGLT2 inhibition assay for validation of screening hits and similar compounds (1‐NBD‐glucose uptake, CHO‐hSGLT2 cells); format: cell-based; parameters: activity: dose or concentration left out as unconfirmed; details: for activity: compound, normalized 1-NBD-glucose uptake, CHO-hSGLT2 cells; for remaining activity at 5 µM / remaining activity at 50 µM: 0.5 h, read-out: NORMALIZED SGLT2 ACTIVITY (%)
# T2 sequence (P31639 1-672): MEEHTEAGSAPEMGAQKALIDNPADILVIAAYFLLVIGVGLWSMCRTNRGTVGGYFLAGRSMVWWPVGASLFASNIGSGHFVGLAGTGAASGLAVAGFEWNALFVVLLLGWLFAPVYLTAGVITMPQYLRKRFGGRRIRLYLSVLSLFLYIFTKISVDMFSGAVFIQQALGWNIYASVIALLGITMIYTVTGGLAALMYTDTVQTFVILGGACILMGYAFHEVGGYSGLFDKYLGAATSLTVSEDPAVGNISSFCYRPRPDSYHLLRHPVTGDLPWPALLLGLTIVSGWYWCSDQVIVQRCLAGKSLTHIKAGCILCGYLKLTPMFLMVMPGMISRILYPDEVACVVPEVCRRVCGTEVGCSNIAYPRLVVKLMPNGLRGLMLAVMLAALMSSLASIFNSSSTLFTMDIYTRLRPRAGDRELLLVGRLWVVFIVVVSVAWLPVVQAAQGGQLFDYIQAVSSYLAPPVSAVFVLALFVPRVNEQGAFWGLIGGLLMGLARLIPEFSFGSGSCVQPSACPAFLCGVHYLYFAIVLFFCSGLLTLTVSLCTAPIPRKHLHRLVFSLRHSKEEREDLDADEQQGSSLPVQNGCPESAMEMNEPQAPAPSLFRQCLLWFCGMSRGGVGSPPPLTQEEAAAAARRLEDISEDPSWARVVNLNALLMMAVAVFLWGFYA
# [3] = tested on: CHO‐hSGLT1/2 cells; assay: Cytotoxicity assay (ToxiLight, adenylate kinase leakage into CHO‐SGLT1/2 inhibition assay media); parameters: CYTOTOXICITY / CY[…], mean / CYTOTOXICITY (% of vehicle control) Mean / CYTOTOXICITY, mean / CY[…] (% of vehicle control) Mean: dose or concentration left out as unconfirmed; details: mean; for CY[…] 50 mM: at 50 mM (so in the source);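 as to all read-outs here: bioluminescent read-out of adenylate kinase released from lysed cells into the medium, given relative to DMSO vehicle control defined as 0%, higher meaning more cytolysis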
# [4] = ratio of normalized SGLT2 to SGLT1 activity at 5 uM
# [5] = mean inhibition with 50 μmol/L inhibitor
Structure (SMILES),activity ([1]; mean),activity ([2]; mean),"SGLT2/SGLT1 ACTIVITY RATIO 5 uM Mean [2, 4]",CYTOTOXICITY (% of vehicle control) Mean [3],"remaining activity at 5 µM ([1]; mean, concentration not given)","remaining activity at 50 µM ([1]; mean, concentration not given)","remaining activity at 5 µM ([2]; mean, concentration not given)","remaining activity at 50 µM ([2]; mean, concentration not given)",CYTOTOXICITY [3],other results
CCOC(=O)c1ccc(OC2OC(CO)C(O)C(O)C2O)cc1 (centres unmarked) [Clivicolide],99%,111%,1.1,12 % of vehicle control,,,,,,
Clc1ccc(C(OCCN2CCCCC2)c2ccccc2)cc1 (centres unmarked) [Cloperastine HCl],61%,65%,1.1,-5 % of vehicle control,,,,,,
"COC(=O)C(c1ccccc1Cl)N1CCc2sccc2C1 (centres unmarked) [Clopidogrelum, clopidogrel]",,,,,,,,,,remaining activity at 5 µM [1]: 96%; remaining activity at 50 µM [1]: 54%; SGLT2/SGLT1 ACTIVITY RATIO [2]: 1.1 and 1.0; remaining activity at 5 µM [2]: 95%; remaining activity at 50 µM [2]: 60%; CY[…] 50 mM [3]: -9
O=c1c(-c2ccc(O)cc2)coc2cc(O[C@@H]3O[C@H](CO)[C@@H](O)[C@H](O)[C@H]3O)ccc12 [Daidzin],97%,102%,1.0,-19 % of vehicle control,,,,,,
O=c1c2ccccc2[nH]c(=S)n1CCN1CCC(=C(c2ccc(F)cc2)c2ccc(F)cc2)CC1 [Diacylglycerol Kinase Inhibitor II],,,,,105%,89%,106%,85%,-13,
CN1CCC(OC(c2ccccc2)c2ccccc2)CC1 [Diphenylpyraline HCl],108%,104%,1.0,,,,,,,CY[…] (% of vehicle control) Mean [3]: -6 % of vehicle control
C[C@@H]1O[C@@H](O[C@H]2[C@H](O[C@H]3CC[C@@]4(C)[C@@H](CC[C@]5(C)[C@@H]4CC=C4[C@@H]6CC(C)(C)CC[C@]6(C(=O)O[C@@H]6O[C@H](CO[C@@H]7O[C@H](CO)[C@@H](O)[C@H](O)[C@H]7O)[C@@H](O)[C@H](O)[C@H]6O)CC[C@]45C)[C@]3(C)CO)OC[C@H](O)[C@@H]2O)[C@H](O)[C@H](O)[C@H]1O [Dipsacoside B],,,,,,,,,,remaining activity at 5 µM [1]: 96%; remaining activity at 50 µM [1]: 104%; SGLT2/SGLT1 ACTIVITY RATIO [2]: 1.2 and 1.3; remaining activity at 5 µM [2]: 121%; remaining activity at 50 µM [2]: 121%; CY[…] 50 mM [3]: -12
COC(=O)[C@@]1(C)CC[C@]2(C(=O)O[C@@H]3O[C@H](CO)[C@@H](O)[C@H](O)[C@H]3O)CC[C@]3(C)C(=CC[C@@H]4[C@@]5(C)C[C@H](O)[C@H](O[C@@H]6OC[C@@H](O[C@@H]7O[C@H](CO)[C@@H](O)[C@H](O)[C@H]7O)[C@H](O)[C@H]6O)[C@@](C)(CO)[C@@H]5CC[C@]43C)[C@@H]2C1 [Esculentoside H],,,,,104%,102%,120%,112%,-13,
C=C[C@@]1(C)CC(=O)[C@]2(O)[C@@]3(C)[C@@H](O)CCC(C)(C)[C@@H]3[C@H](O)[C@H](OC(C)=O)[C@@]2(C)O1 [Forskolin],,,,,89%,79%,103%,95%,,CY[…] 50 mM [3]: 12
C[C@@H]1O[C@@H](O[C@H]2[C@H](O[C@H]3CC[C@@]4(C)[C@@H](CC[C@]5(C)[C@@H]4CC=C4[C@@H]6CC(C)(C)CC[C@]6(C(=O)O)CC[C@]45C)[C@]3(C)CO)OC[C@H](O)[C@@H]2O)[C@H](O)[C@H](O[C@@H]2O[C@H](CO)[C@@H](O)[C@H](O)[C@H]2O)[C@H]1O [Kalopanaxsaponin H],,,,,104%,99%,117%,110%,-33,
C=C(C)C(CC=C(C)C)Cc1c(O)cc2c(c1O)C(=O)CC(c1ccc(O)cc1O)O2 (centres unmarked) [Kushenol F],109%,,,15 % of vehicle control,,,,,,SGLT2/SGLT1 ACTIVITY RATIO 5 uM Mean [2]: 1.1; SGLT2/SGLT1 ACTIVITY RATIO 50 mM Mean [2]: 1.1
CC1(C)Oc2ccc3ccc(=O)oc3c2CC1O (centres unmarked) [Lomatin],,,1.0,-26 % of vehicle control,,,,,,"SGLT1 inhibition [1, 5]: no SGLT inhibition; SGLT2 inhibition [2, 5]: no SGLT inhibition"
Oc1cc(O)cc(/C=C/c2ccc(O)cc2O)c1 [Oxyresveratrol],,,,,105%,123%,109%,115%,-89,
C1CCC(C(CC2CCCCN2)C2CCCCC2)CC1 (centres unmarked) [Perhexiline maleate salt],,,,,98%,49%,88%,38%,,CY[…] 50 mM [3]: 0.684
Oc1cc(O)cc(/C=C/c2ccc(O)c(O)c2)c1 [Piceatannol],,,,,107%,101%,101%,105%,-87,
Oc1cc(O)cc(/C=C/c2ccccc2)c1 [Pinosylvin],,,,,98%,155%,97%,117%,-71,
CC1(C)Oc2ccc3ccc(=O)oc3c2[C@@H](O)[C@H]1O[C@@H]1O[C@H](CO)[C@@H](O)[C@H](O)[C@H]1O [Praeroside II],98%,98%,1.0,10 % of vehicle control,,,,,,
CC=C(C)C(=O)O[C@H]1c2c(ccc3ccc(=O)oc23)OC(C)(C)[C@H]1OC(=O)C(C)=CC [Praeruptorin B - INDOFINE],91%,92%,1.0,-15 % of vehicle control,,,,,,
COc1cc(O)c2c(=O)c(-c3ccc(OC4OC(CO)C(O)C(O)C4O)cc3)coc2c1 (centres unmarked) [Prunetin-4-p-galactoside],81%,100%,1.2,-26 % of vehicle control,,,,,,
COc1cc(/C=C/c2ccc(O)cc2)cc(OC)c1 [Pterostilbene],,,,,100%,119%,102%,123%,-42,
C[C@@H]1O[C@@H](O[C@H]2[C@H](O[C@H]3CC[C@]4(C)[C@H]5CC=C6[C@@H]7CC(C)(C)CC[C@]7(C(=O)O)CC[C@@]6(CO)[C@]5(C)CC[C@H]4C3(C)C)OC[C@H](O[C@@H]3O[C@H](CO)[C@@H](O)[C@H](O)[C@H]3O)[C@@H]2O)[C@H](O)[C@H](O)[C@H]1O [Raddeanoside 20],,,,,103%,99%,116%,116%,-24,
CCCN1CCCC[C@H]1C(=O)Nc1c(C)cccc1C [Ropivacaine HCl monohydrate],,,,,97%,70%,86%,67%,,CY[…] 50 mM [3]: 0.836
COc1cc(O[C@@H]2O[C@H](CO)[C@@H](O)[C@H](O)[C@H]2O)c2c(c1)O[C@H](c1ccc(O)cc1)CC2=O [Sakuranin],98%,100%,1.0,-1.5 % of vehicle control,,,,,,
